Molecules are shown by their SMILES. “And” between values parts separate entries of the source, which are not always exact repeats. Identical values can stand only once. Like-named read-outs stand apart in the source and are kept apart here.

For data set [1] the following is noted: as disclosed in U.S. Pat. No. 4,218,454; cited from earlier work.
The target in another data set is T1, opiate receptor (Rattus norvegicus, UniProt P33535).
T1 construct: from tissue
Nature of the data set: biochemical. It counts as binding.

The nature of data set [2]: induced Straub tail method (antagonist activity). The settings on record: for ED50: read-out: Antagonism ED50, Straub Tail.
For data set [3] the following is noted: in vivo.
Data set [4] in a line: mouse jump test (physical dependence). The class given is in vivo. The settings on record: after 100 mg/kg naloxone on day 4; 30 min. Here is the method: (§1) Analgesic activity was measured using the tail-flick assay of D'Amour, F. D., et al, J. Pharmacol. Exper. (1941) 72: 74, or by the writhing assay described by Blumberg, H., et al, Proc. Soc. Exp. Biol. Med. (1965) 118: 763. The antagonist activity, considered a measure of nonaddictiveness, was measured by the opiate receptor assay of Pert, C., et al, Mol. Pharmacol. (1974) 10: 868. Antagonist activity was also measured using the induced Straub tail method as described by De Graw, J., et al, J. Med Chem (1978) 21: 415; and Blumberg, H., et al, Advances in Chemical Psychopharmacology, Vol. 8, M. Braudy, et al, ed. Raven Press, New York, N.Y. (1973), 33-43. A direct and simple assay measuring physical dependence is the mouse jump test described by Saelens, J., et al, Arch Int Pharmacodyn (1971) 190: 213.
Physical dependence, a much more direct measure of non-addictive properties than antagonist activity, was evaluated using the mouse jump test. Mice are injected intraperitoneally 5 times on day 1 with increasing doses of test compound ranging from 8-100 mg/kg body weight. On days 2 and 3 the mice are given 100 mg/kg 4 times. On day 4 all mice receive 100 mg/kg of the antagonist naloxone in a single dose. The mice are then caged for 30 min, and a record is made of the number jumping during this time.

Data set [5] is described as follows: writhing assay (analgesia). The class given is in vivo. The settings on record: compared with morphine. The protocol:
as §1
(In writhing tests, fewer writhes than in controls are read as antinociception.)

The mark [6] stands for this setting: +NaCl, read-out: Opiate Receptor Inhibition 1C50.
Where [7] appears, read: -NaCl, read-out: Opiate Receptor Inhibition 1C50.

T1 sequence (P33535 whole entry): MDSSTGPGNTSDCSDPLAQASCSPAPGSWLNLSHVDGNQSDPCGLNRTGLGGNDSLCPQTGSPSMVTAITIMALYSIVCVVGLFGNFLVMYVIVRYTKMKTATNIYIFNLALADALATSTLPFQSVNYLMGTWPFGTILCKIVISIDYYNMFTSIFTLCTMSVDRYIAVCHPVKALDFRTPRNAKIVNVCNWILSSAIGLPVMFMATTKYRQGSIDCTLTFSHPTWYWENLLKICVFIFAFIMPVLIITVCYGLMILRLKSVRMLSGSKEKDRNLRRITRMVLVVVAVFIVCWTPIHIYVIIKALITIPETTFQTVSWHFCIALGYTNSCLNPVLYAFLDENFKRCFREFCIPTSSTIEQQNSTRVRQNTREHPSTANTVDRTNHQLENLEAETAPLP

A word on the ED50: it is the dose that gives a 50% effect, or the effect in half of the subjects. Regarding `CC[C@H](C)N1CC[C@]23c4c5ccc(O)c4O[C@H]2[C@@H](O)C=C[C@H]3[C@H]1C5` [N--sec-butyl normorphine (S), reference compound], the addiction liability result in data set [1] is on record as “little or no addiction liability”. Also, the IC50 amounted to 62 nM on opiate receptor (setting [6]) and 28 nM on opiate receptor (setting [7]). Further, the ED50 in data set [2] came out at 7.4 µmol/kg.

With `CC(C1CC1)N1CC[C@]23c4c5ccc(O)c4O[C@H]2[C@@H](O)C=C[C@H]3[C@H]1C5` (single isomer, unassigned; diastereomer b) [N-methylcyclopropylmethyl normorphine (diastereomer B)], the IC50 on opiate receptor (setting [7]) was 7 nM.

Turning to `CN1CC[C@]23c4c5ccc(O)c4O[C@H]2[C@@H](O)C=C[C@H]3[C@H]1C5` [morphine], in data set [3], the “time after which activity declines substantially” value turned out to be 3 h. The “Antagonism ED50, Tail Flick” value (reversal of analgesia induced by morphine in the tail flick assay) came to 2 µmol/kg. In data set [2] (Straub tail method), the “Antagonism ED50, Straub Tail” value worked out at 1 µmol/kg. The “number of mice jumping” value in data set [4] is listed as 10/10.

`C=CCN1CC[C@]23c4c5ccc(O)c4O[C@H]2[C@@H](O)C=C[C@H]3[C@H]1C5` [nalorphine, reference compound]: the addiction liability entry in data set [1] is on record as “little or no addiction liability”. The IC50 on opiate receptor (Opiate Receptor Inhibition 1C50) was 2 nM and 6 nM. Moreover, the “Antagonism ED50, Tail Flick” value (in vivo) was determined as 2.04 µmol/kg.

As to `CC[C@@H](C)N1CC[C@]23c4c5ccc(O)c4O[C@H]2[C@@H](O)C=C[C@H]3[C@H]1C5` [N--sec-butyl normorphine (R), reference compound], the addiction liability result in data set [1] is “little or no addiction liability”. Further, the IC50 at opiate receptor (setting [6]) came out at 110 nM; on opiate receptor (setting [7]), 60 nM. For the same compound, the ED50 in data set [2] turned out to be 16.2 µmol/kg.

As for `CC(C1CC1)N1CC[C@]23c4c5ccc(O)c4O[C@H]2[C@@H](O)C=C[C@H]3[C@H]1C5` (single isomer, unassigned; diastereomer b) [N--α-methylcyclopropyl-methyl normorphine (B)] [N-methylcyclopropylmethyl normorphine (diastereomer B)], in data set [3] (sc), the “potency relative to morphine in the tail flick assay (in words)” value is recorded as “only one-fifth as potent as morphine”.

In the case of `CC(C1CC1)N1CC[C@]23c4c5ccc(O)c4O[C@H]2[C@@H](O)C=C[C@H]3[C@H]1C5` (single isomer, unassigned; diastereomer a) [N--α-methylcyclopropyl-methyl normorphine (A)] [N-methylcyclopropylmethyl normorphine (diastereomer A)], in data set [3], the “activity relative to the diastereomeric mixture and to diastereomer B” value is “much higher activity”; the “oral activity compared with subcutaneous morphine in the tail flick assay” value is “approximated an equivalent dose of morphine administered subcutaneously”. In data set [3] (po), the duration of effectiveness amounted to 4 h; the onset of action lay in the range of 5 to 10 min; the “times as potent as morphine in tail flick analgesia, oral” value is reported as 6.2 times. Besides, in data set [3] (sc), the “activity of lower melting diastereomer A relative to higher melting form” value is “about 25 times” and the “times as potent as morphine in the tail flick assay” value came out at 5.2 times. For the same compound, at opiate receptor, the “times the affinity of N-sec-butylnormorphine in the opiate assay” value is “about 122 times” and the “times the affinity of morphine in the opiate assay” value is given as “over 43 times”. Also, on opiate receptor (competitive binding against 3H-dihydromorphine, A versus B), the “times more tightly bound than the higher melting form” value is reported as 30 times. Moreover, the “Antagonism ED50, Tail Flick” value (in vivo) was more than 213 µmol/kg.

For `CC(C1CC1)N1CC[C@]23c4c5ccc(O)c4O[C@H]2[C@@H](O)C=C[C@H]3[C@H]1C5` (single isomer, unassigned; diastereomer a) [N-methylcyclopropylmethyl normorphine (diastereomer A)], at opiate receptor (setting [7]), the IC50 was 0.23 nM.

Take `CC(C1CC1)N1CC[C@]23c4c5ccc(O)c4O[C@H]2[C@@H](O)C=C[C@H]3[C@H]1C5` (mixture of isomers) [N-α-Methylcyclopropylmethylnormorphine]: the “potency relative to morphine in the tail flick assay” value in data set [3] (sc) is listed as “about 85%”. Further, in data set [1], the addiction liability result was “little or no addiction liability”. The IC50 at opiate receptor (setting [6]) was 6 nM; on opiate receptor (setting [7]), 3 nM. The “potency relative to morphine in the writhing assay” value in data set [5] is reported as “more than twice as potent”. For the same compound, the “antagonist potency relative to nalorphine” value in data set [2] (in vivo) was “about one-fourth as potent as nalorphine”. In data set [2], the ED50 is 4.5 µmol/kg.

These data come from patent US4749706A (priority 1986, dated 1988).
